The conditions of this series: in vivo.

Text: Subjects reported to the testing facility, at which time inclusion/exclusion criteria was reviewed and Informed Consent obtained. Upon verification of eligibility to enroll, the test articles were applied to the upper arm of each subject. The test articles were applied to the Webril□ disks according to a dose regime (see Section 5.1). The skin was marked with dots of crystal violet applied on either side of the top disk and below the bottom disk of the strip to enable exact location of subsequent patches. Each subject was asked to avoid the dye marks during washing and to keep the patches dry.
Subjects received patches containing the test article and two standard controls which were applied as 0.2 ml/0.2 g samples in one of five randomly assigned orders on the upper arm. The sample order for each subject was documented and maintained throughout the study in the form of a color-coded identification card. Subjects were instructed to keep the patches dry and in place for 23 hours then to remove and discard them and to return to the test center one hour later. Patches were applied on Days 1, 2, 3 and 4. Patches were applied to the same site on each day unless a reaction stronger than a mild erythema (i.e. greater than a score of 1.5 (Appendix 5)) was present in which case the patch strip was cut and the relevant patch (es) not reapplied. Assessment of patch sites was immediately before application of the next patch on Days 2, 3, 4 and on Day 5. After removal of the patches the test sites were wiped with a damp tissue to remove any remaining product.

As for `CCCCCCCCCCCCOS(=O)(=O)[O-].[Na+]` [0.3% W/V SLS], the “patch site score Day 2, MEAN” value is given as 0.08; the “patch site score Day 3, MEAN” value is given as 0.37; the “patch site score Day 4, MEAN” value is 0.63; the “patch site score Day 5, MEAN” value is given as 0.82.

Source of the values: patent publication US20230030989A1, “JUST SUNSCREEN” (Pouch Pac Innovations, LLC, priority 2019, published 2023).
